Values quoted from earlier work as cited in US10711094B2, “Conjugated polymer nanoparticles, methods of using, and methods of making” (KING ABDULLAH UNIVERSITY OF SCIENCE AND TECHNOLOGY, priority 2015, dated 2020).

Conditions: in ethanol

fluorescence quantum yield (Φfl) of reference dye: 96%
SMILES: O=C(O)c1ccccc1C1=c2cc3c4c(c2Oc2c1cc1c5c2CCCN5CCC1)CCC[N+]=4CCC3.[Cl-] [Rhodamine 101]
